Laboratory results reported in patent US20230203081A1, “LINCOSAMIDE ANTIBIOTICS AND USES THEREOF” (President and Fellows of Harvard College, priority 2020, published 2023).

What was measured:
Type in all cases: cell-based
[1] = tested on: E. coli armA; assay: microbe, parasite or virus in culture; details: Escherichia coli, E. coli HAV#056; Clinical, armA
Procedure, shortened: (§1)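 Isolates other than streptococci and anaerobes, which had their own procedures, were grown overnight at 35° C on tryptic soy agar with 5% sheep blood. Suspensions were then diluted to a final inoculum of 5×10^5 CFU/mL in broth microdilution wells.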

[2] = tested on: E. coli ΔTolC; assay: microbe, parasite or virus in culture; details: Escherichia coli, E. coli HAV#038; ΔTolC
Procedure, shortened: as §1

[3] = tested on: S. aureus MP-549 msrA; assay: microbe, parasite or virus in culture; details: Staphylococcus aureus, MP549MSRA; S. aureus HAV#032, MP-549; MSR(A); read-out: MIC
Procedure, shortened: as §1

[4] = tested on: S. aureus BAA 977 iErmA; assay: microbe, parasite or virus in culture; details: Staphylococcus aureus, BAA-977 / MRSA
Procedure, shortened: as §1

[5] = tested on: broad panel of different clinical isolates; assay: microbe, parasite or virus in culture
Procedure, shortened: as §1

[6] = tested on: S. pneumoniae MMX 3028 cErmB; assay: MIC (broth microdilution or agar dilution, CLSI); details: Streptococcus pneumoniae, MMX3028CERMB; S. pneumoniae HAV#033; MMX 3028, cErmB; read-out: MIC
Procedure, shortened: as §1

[7] = tested on: E. coli LptD; assay: MIC (broth microdilution or agar dilution, CLSI); details: Escherichia coli, E. coli HAV#040; LptD; read-out: MIC
Procedure, shortened: as §1

[8] = tested on: E. faecalis ATCC 29212; assay: MIC (broth microdilution or agar dilution, CLSI); details: Enterococcus faecalis, ATCC29212, E. faecalis HAV#005, ATCC 29212; read-out: MIC
Procedure, shortened: as §1

[9] = tested on: S. pneumoniae MMX 3031 cMefA; assay: MIC (broth microdilution or agar dilution, CLSI); details: Streptococcus pneumoniae, MMX3031CMEFA, S. pneumoniae HAV#034; MMX 3031, cMefA; read-out: MIC
Procedure, shortened: as §1

[10] = tested on: S. pneumoniae ATCC 49619; assay: MIC (broth microdilution or agar dilution, CLSI); details: Streptococcus pneumoniae, ATCC49619, S. pneumoniae HAV#003, ATCC 49619; read-out: MIC
Procedure, shortened: as §1

[11] = tested on: S. aureus hVISA; assay: MIC (broth microdilution or agar dilution, CLSI); details: Staphylococcus aureus; S. aureus HAV#204, hVISA; read-out: MIC
Procedure, shortened: as §1

[12] = tested on: S. aureus ATCC BAA-1707 (MRSA); assay: MIC (broth microdilution or agar dilution, CLSI); details: Staphylococcus aureus
Procedure, shortened: as §1

[13] = tested on: S. pneumoniae ATCC 6303; assay: MIC (broth microdilution or agar dilution, CLSI); details: Streptococcus pneumoniae, ATCC6303; S. pneumoniae HAV#351, ATCC 6303; read-out: MIC
Procedure, shortened: as §1

[14] = tested on: K. oxytoca Clinical; assay: MIC (broth microdilution or agar dilution, CLSI); details: Klebsiella oxytoca; K. oxytoca HAV#450; Clinical; read-out: MIC
Procedure, shortened: as §1

[15] = tested on: K. pneumoniae ATCC 10031; assay: MIC (broth microdilution or agar dilution, CLSI); details: Klebsiella pneumoniae, ATCC10031
Procedure, shortened: as §1

[16] = tested on: S. aureus ATCC 29213; assay: MIC (broth microdilution or agar dilution, CLSI); details: Staphylococcus aureus, ATCC29213, S. aureus HAV#001, ATCC 29213, MP-549; read-out: MIC
Procedure, shortened: as §1

[17] = tested on: S. pyogenes MMX 946; cErmB; assay: MIC (broth microdilution or agar dilution, CLSI); details: Streptococcus pyogenes; S. pyogenes HAV#035, MMX 946; cErmB, mac-resistant; read-out: MIC
Procedure, shortened: as §1

[18] = tested on: S. aureus ATCC 700699; assay: MIC (broth microdilution or agar dilution, CLSI); details: Staphylococcus aureus; S. aureus HAV#202, ATCC 700699 (VISA); read-out: MIC
Procedure, shortened: as §1

[19] = tested on: S. pyogenes ATCC 19615; assay: MIC (broth microdilution or agar dilution, CLSI); details: Streptococcus pyogenes, ATCC19615, S. pyogenes HAV#004, ATCC 19615; read-out: MIC
Procedure, shortened: as §1

Measured: MIC

C[C@H]1COc2c(N3CCN(C)CC3)c(F)cc3c(=O)c(C(=O)O)cn1c23 [Levofloxacin]
≤ 0.03 µg/mL: [15]
16 µg/mL: [5]; Acinetobacter baumannii, A. baumannii HAV#659, Clinical | [5]; Escherichia coli, E. coli HAV#516, ESBL-producing | [5]; Staphylococcus epidermidis, S. epidermidis HAV# 275 Clinical, cfr | [5]; Staphylococcus epidermidis, S. epidermidis HAV#278 Line R
≤ 0.06 µg/mL: [1] | [2] | [7]
< 0.06 µg/mL: [5]; Escherichia coli, E. coli HAV#512, Clinical | [5]; Escherichia coli, E. coli HAV#514, Clinical
0.125 µg/mL: [5]; Acinetobacter baumannii, A. baumannii HAV#651, Clinical | [5]; Acinetobacter baumannii, A. baumannii HAV#654, Clinical | [5]; Acinetobacter baumannii, A. baumannii HAV#661, Clinical | [5]; Klebsiella pneumoniae, K. pneumoniae HAV#406, Clinical
8 µg/mL: [5]; Acinetobacter baumannii, A. baumannii HAV#662, Clinical | [5]; Enterococcus faecalis, E. faecalis HAV#610, Clinical | [5]; Enterococcus faecalis, S. faecalis 5074, Line R | [5]; Staphylococcus aureus, VISA, S. aureus HAV#203, Clinical (VISA) | [5]; Staphylococcus epidermidis, S. epidermidis HAV#279, Line R | [5]; Staphylococcus haemolyticus, S. haemolyticus 5052, Line R & Methicillin R | [11]
> 128 µg/mL: [5]; Enterococcus faecium, E. faecium HAV#324, Clinical | [5]; Klebsiella pneumoniae, K. pneumoniae HAV#407, Clinical | [5]; Staphylococcus epidermidis, S. epidermidis HAV#277, Line R | [12]
32 µg/mL: [5]; Acinetobacter baumannii, A. baumannii HAV#656, Clinical | [5]; Enterococcus faecalis, E. faecalis HAV#609, Clinical | [5]; Escherichia coli, E. coli HAV#501, Clinical | [5]; Staphylococcus aureus, S. aureus HAV#054, mecA, norA, spcl, aad1, fosB, ermA, aac6′-aph2″, blaZ | [18]
0.03 µg/mL: [5]; Haemophilus influenzae, ATCC9007, H. influenzae HAV#376, ATCC-9007
64 µg/mL: [5]; Acinetobacter baumannii, A. baumannii HAV#660, Clinical | [5]; Acinetobacter baumannii, A. baumannii HAV#664, Carbapenem R | [5]; Enterococcus faecalis, E. faecalis HAV#607, Clinical | [5]; Enterococcus faecalis, E. faecalis HAV#608, Clinical | [5]; Enterococcus faecalis, S. faecalis 5060, Line R & Vanco R | [5]; Escherichia coli, E. coli HAV#503, Clinical | [5]; Klebsiella pneumoniae, K. pneumoniae HAV#041, Clinical, KPC | [5]; Staphylococcus aureus, MRSA, S. aureus HAV#220, Line R
128 µg/mL: [5]; Enterococcus faecalis, VRE, E. faecalis HAV#606, Clinical | [5]; Enterococcus faecium, E. faecium HAV#328, Clinical | [5]; Enterococcus faecium, E. faecium HAV#329, Clinical | [5]; Enterococcus faecium, VRE, E. faecium HAV#319, Line R & Vanco R | [5]; Staphylococcus epidermidis, S. epidermidis HAV# 276, cfr
1 µg/mL: [3] | [5]; Acinetobacter baumannii, A. baumannii HAV#652 Clinical | [5]; Enterococcus faecalis, E. faecalis HAV#602, Clincal | [5]; Klebsiella pneumoniae, K. pneumoniae HAV#404, Clinical | [5]; Klebsiella pneumoniae, K. pneumoniae HAV#405, Clinical | [5]; Klebsiella pneumoniae, K. pneumoniae HAV#408, Clinical | [5]; Staphylococcus aureus, MRSA, S. aureus HAV#0107, MRSA Col(Colindale, England) | [5]; Staphylococcus aureus, S. aureus HAV#052, mecA, norA, fosB, blaZ | [10]
2 µg/mL: [5]; Enterococcus faecalis, VRE, E. faecalis HAV#251, Clinical VRE | [5]; Enterococcus faecium, E. faecium HAV#317, Clinical | [5]; Escherichia coli, E. coli HAV#513, Clinical | [5]; Staphylococcus aureus, S. aureus HAV#213, Clinical | [5]; Staphylococcus aureus, S. aureus HAV#217, cfr | [8]
0.25 µg/mL: [5]; Acinetobacter baumannii, A. baumannii HAV#653, Clinical | [5]; Acinetobacter baumannii, A. baumannii HAV#658, Clinical | [5]; Acinetobacter baumannii, A. baumannii HAV#663, Clinical | [5]; Staphylococcus aureus, MRSA, S. aureus HAV#218, Line R | [5]; Staphylococcus aureus, MSSA, S. aureus HAV#219, Line R | [5]; Staphylococcus aureus, S. aureus HAV#212, Clinical | [5]; Staphylococcus aureus, S. aureus HAV#214, Clinical | [5]; Staphylococcus aureus, S. aureus HAV#215, Clinical | [5]; Streptococcus pneumoniae, ATCCBAA255, S. pneumoniae HAV#354, ATCC-BAA-255 | [5]; Streptococcus pneumoniae, S. pneumoniae HAV#356, Clinical | [5]; Streptococcus pneumoniae, S. pneumoniae HAV#358, Clinical | [16]
0.5 µg/mL: [4] | [5]; Acinetobacter baumannii, A. baumannii HAV#655, Clinical | [5]; Acinetobacter baumannii, A. baumannii HAV#657, Clinical | [5]; Klebsiella pneumoniae, K. pneumoniae HAV#409, ESBL-producing | [5]; Staphylococcus aureus, S. aureus HAV#051, mecA, norA, spcl, ermA, aad1, aac6′-aph2″ | [5]; Staphylococcus aureus, S. aureus HAV#053 mecA, norA, fosB | [5]; Streptococcus pneumoniae, ATCC700673, S. pneumoniae HAV#352, ATCC 700673, MDR | [5]; Streptococcus pneumoniae, ATCCBAA334, S. pneumoniae HAV#353, ATCC-BAA-334 | [6] | [9] | [13] | [14] | [17] | [19]
4 µg/mL: [5]; Enterococcus faecium, E. faecium HAV#327, Clinical | [5]; Enterococcus faecium, VRE, E. faecium HAV#320, Clinical | [5]; Escherichia coli, E. coli HAV#511, Clinical
